# Publication PMC9865752, “Design and Synthesis of (Z)-2-(Benzylamino)-5-benzylidenethiazol-4(5H)-one Derivatives as Tyrosinase Inhibitors and Their Anti-Melanogenic and Antioxidant Effects” (Molecules, 2023)
# Columns and labels:
# [1] = DPPH radical scavenging assay; details: test samples 500 µM; DPPH 0.18 mM; 30 min in the dark
# Procedure: DPPH is a light-sensitive compound containing free radicals. The DPPH assay is one of the most common methods for evaluating the antioxidant activity of a compound. The effects of BABT derivatives on DPPH radical scavenging activities were evaluated using L-ascorbic acid as a positive reference control. DPPH radical scavenging activities were measured after leaving the mixed samples (test samples of 500 µM plus DPPH solution of 0.18 mM) in the dark for 30 min. To determine the radical scavenging activities, the absorbance of the mixed samples was measured at 517 nm.
# According to previously described methods, with minor modifications, the DPPH radical scavenging activities of BABT derivatives 1–14 were measured. A DPPH (0.2 mM) and methanol solution (180 µL) was mixed with 20 µL of a DMSO solution containing 5 mM BABT derivative, or with 20 µL of an aqueous solution of 5 mM L-ascorbic acid, in each well of a 96-well plate and kept at ambient temperature in the dark for 30 min. The optical density of each well was measured at 517 nm using a microplate reader (VersaMax; Molecular Devices). L-Ascorbic acid was used as a positive reference control, and the DPPH radical scavenging abilities of BABT derivatives were compared with those of L-ascorbic acid. All experiments were performed independently, thrice.
# [2] = biological target: T1, mushroom tyrosinase (Agaricus bisporus, UniProt C7FF04); assay: Kinetic studies of mushroom tyrosinase inhibition (Lineweaver–Burk and Dixon plots); type: biochemical; details: substrate L-dopa
# T1 construct: purchased
# Procedure: Kinetic studies using Lineweaver–Burk plots were performed using four different concentrations (0, 0.5, 1, and 2 µM) of the test derivatives (7 and 8) and five different concentrations (0.5, 1, 2, 4, and 8 mM for 7, and 1, 2, 4, 8, and 16 mM for 8) of L-dopa.
# Lineweaver–Burk plots for 7 and 8 were transformed into the corresponding Dixon plots to determine their inhibition constant (Ki) values for the mushroom tyrosinase–inhibitor complex. […] The Ki values for the mushroom tyrosinase–inhibitor complex were obtained from the x-axis value of each convergence point.
# Lineweaver–Burk plots of derivatives 7 and 8 were obtained in the presence of L-dopa as the substrate. Briefly, 20 µL aliquots of mushroom tyrosinase aqueous solution (200 units/mL) were added to each well of a 96-well plate containing 10 µL BABT derivative (7 or 8) DMSO solution (final concentrations: 0, 0.5, 1, and 2 µM) and 170 µL of an aqueous solution containing L-dopa (final concentrations: 1.0, 2.0, 4.0, 8.0, and 16.0 mM) and sodium phosphate buffer (pH 6.5, 17.2 mM). The initial rate of dopachrome formation was determined by examining the changes in absorbance at a wavelength of 475 nm (ΔOD475/min) using a microplate reader (VersaMax; Molecular Devices).
# [3] = system: tyrosinase; assay: Western blotting of tyrosinase protein expression; type: cell-based, murine
# Procedure: We investigated whether, in addition to the direct inhibition of tyrosinase, another inhibitory mechanism of melanogenesis by derivative 8 may be related to the expression of proteins involved in melanogenesis. For the Western blotting experiment, B16F10 cells were treated with α-MSH (1 µM) plus IBMX (200 µM), leading to a 1.7- and 4.9-fold increase in expression levels of melanogenesis-associated proteins tyrosinase and MITF, compared to those in the untreated control (100%) (Figure 13).
# B16F10 cells were seeded in a 60 mm dish at a density of 5 × 10^5 cells/mL for 24 h, washed with cold PBS, and harvested. Cytosolic and nuclear fractions of cell lysates were extracted using lysis buffer, as described previously. Protein concentrations in the cell lysates were estimated using the BCA protein assay (Pierce, Rockford, IL, USA). […] The membranes were washed and protein bands detected using the SuperSignal West Pico Chemiluminescence assay kit (Advansta, San Jose, CA, USA) and the Davinch–Chem program (Davinch-K, Seoul, Republic of Korea). Immunoblotting data were quantified using CS Analyzer 3.2 (Densitograph) image analysis software (http://www.attokorea.co.kr, accessed on 21 November 2022).
# [4] = ABTS radical scavenging assay; details: test samples 100 µM; 2 min in the dark
# Procedure: An antioxidant assay using ABTS is also commonly used to assess the antioxidant activities of compounds. Donation of one electron from ABTS to potassium persulfate generates the ABTS radical cation. An ABTS radical scavenging activity assay was performed using 100 µM of BABT derivatives or Trolox (a positive reference control) by mixing test samples with ABTS radical cations obtained from a reaction of potassium persulfate and ABTS. ABTS radical scavenging activity was assessed by measuring the optical density at 734 nm after leaving the test sample–ABTS radical cation mixture in the dark for 2 min.
# According to a previously described method, with minor modifications, the ABTS radical scavenging activities of BABT derivatives 1–14 were assessed. Briefly, an ABTS radical solution was prepared by mixing 10 mL of aqueous ABTS solution (7 mM) with 10 mL of potassium persulfate aqueous solution (2.45 mM), and the mixture was kept for 11–15 h in the dark at room temperature until the absorbance remained constant. Prior to the antioxidant assay experiments, the ABTS radical solution was diluted with water to adjust the absorbance at 734 nm to 0.70 ± 0.02. A 10 µL aliquot of BABT derivatives or Trolox at a concentration of 1000 µM was added to 90 µL of ABTS+ free radical solution in each well of a 96-well plate and incubated for 2 min in the dark at ambient temperature. The absorbance of each well was measured at 734 nm using a microplate reader (VersaMax; Molecular Devices). The ABTS+ radical scavenging activities of BABT derivatives were compared to those of Trolox. All experiments were carried out independently, thrice.
# T1 sequence (C7FF04 1-392): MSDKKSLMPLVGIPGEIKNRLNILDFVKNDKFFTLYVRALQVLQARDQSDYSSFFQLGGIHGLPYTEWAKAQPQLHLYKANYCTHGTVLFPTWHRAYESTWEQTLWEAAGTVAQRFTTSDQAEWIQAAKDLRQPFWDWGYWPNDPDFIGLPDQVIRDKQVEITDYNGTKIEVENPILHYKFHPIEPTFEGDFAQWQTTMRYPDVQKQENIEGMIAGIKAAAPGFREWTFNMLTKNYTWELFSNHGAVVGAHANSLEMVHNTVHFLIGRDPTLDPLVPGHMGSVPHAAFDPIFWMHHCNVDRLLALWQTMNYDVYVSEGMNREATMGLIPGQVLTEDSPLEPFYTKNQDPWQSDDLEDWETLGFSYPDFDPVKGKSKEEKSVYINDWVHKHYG
structure (smiles),measurement,setting,value
"O=C1N=C(NCc2ccccc2)S/C1=C\c1ccc(O)cc1O [Compound 8, (Z)-2-(benzylamino)-5-(2,4-dihydroxybenzylidene)thiazol-4(5H)-one]","DPPH radical scavenging activity, % inhibition",[1],76%
same,Ki,"[2]; Dixon plots, read-out: inhibition constant (Ki) for the mushroom tyrosinase–inhibitor complex",810 nM
same,mode of inhibition,[2]; Lineweaver–Burk plots,competitive inhibitors
same,relative expression level of tyrosinase protein,"[3]; 10 µM, α-MSH plus IBMX treated B16F10 cells",lowered the protein expression to the same or lower control levels
same,relative expression level of tyrosinase protein,"[3]; 5, 10 and 20 µM, α-MSH (1 µM) plus IBMX (200 µM) treated B16F10 cells",significantly reduced the relative expression levels of tyrosinase and MITF in a dose-dependent manner
same,"ABTS radical scavenging activity, % inhibition",[4],96%
